Measurements published in patent publication US20130072505A1, “6,9-Disubstituted Purine Derivatives and Their Use for Treating Skin” (priority 2006, published 2013).

What was measured:
Assay in all cases: in vitro cytotoxic activity, Calcein AM microtiter assay
Assay type in all cases: cell-based
mouse fibroblasts NIH3T3 = conditions: NIH3T3, 72 hours, highest concentration 166.7 μM, read-out: GI50 NIH-3T3
Description: (§1) In vitro cytotoxic activity of several of the 6,9-disubstituted purine derivatives of this invention was determined using a microtiter assay with Calcein AM and a panel of cell lines of different histogenetic and species origin; kinetin was also examined as a control. Because only metabolically active cells cleave Calcein AM (tetraacetoxymethyl ester of calcein), the intracellular concentration of calcein corresponds to the number of vital cells in the culture.
(§2) The following cell lines were used: human osteosarcoma (HOS); breast carcinoma MCF-7; human myeloid leukemia K-562; and mouse fibroblasts NIH3T3. The cells were maintained in Nunc/Corning 80 cm^2 plastic tissue culture flasks and cultured in cell culture medium (DMEM with 5 g/l glucose, 2 mM glutamine, 100 U/ml penicillin, 100 μg/ml streptomycin, 10% fetal calf serum, and sodium bicarbonate).
(§3) The cell suspensions were prepared and diluted according to the particular cell type and the expected target cell density (2.500-30.000 cells per well based on cell growth characteristics) were added by pipette (80 μl) into 96/well microtiter plates. Inoculates were allowed a pre-incubation period of 24 hours at 37° C. and 5% CO2 for stabilization. Four-fold dilutions of the intended test concentration were added at time zero in 20 μl aliquots to the microtiter plate wells. The test compounds were generally evaluated at six 4-fold dilutions. The highest well concentration used in the present study was 166.7 μM. All samples were examined in triplicates. Incubations of cells with the tested compounds was for 72 hours at 37° C., in 5% CO2 atmosphere and 100% humidity. At the end of the incubation period, Calcein AM was added to a final concentration of 1 μg/ml incubated for 1 hour. Fluorescence intensity (FI) was measured with a Labsystem FIA Reader Fluoroscan Ascent (UK). The cell survival (GI50) was calculated using the following equation: GI50=([…])/(mean FIcontrol well−mean FIblank)×100%. The GI50 value, the drug concentration lethal to 50% of the cells, was calculated from the obtained dose response curves.

breast carcinoma MCF-7 = conditions: Homo sapiens, MCF7; 72 hours; highest concentration 166.7 μM
Description: as §1, §2, §3

human osteosarcoma (HOS) = conditions: 72 hours, highest concentration 166.7 μM
Description: as §1, §2, §3

[1] = test system: human myeloid leukemia K-562; conditions: K562, 72 hours, highest concentration 166.7 μM
Description: as §1, §2, §3

Measured: GI50

c1coc(CNc2ncnc3c2ncn3C2CCCCO2)c1 (stereo not shown) [6-furfurylamino-9-(2-tetrahydropyranyl)purine]
> 167 µM: all assays above
